Values joined by “and” are separate entries in the source; they are usually repeats but may differ in a detail not shown here. Identical values can stand only once. Like-named read-outs stand apart in the source and are kept apart here.
How the values were obtained:
[1] = system: Diffuse Large B-Cell Lymphoma cell lines; test: CellTiter-Glo viability, DLBCL cell line panel; format: cell-based; conditions: 72 h, six out of eleven DLBCL cell lines tested
Protocol: (§1) Cells were seeded into 96-well plates and treated at 8 points with 1:2 serial dilution of compounds. Cell viability was assessed and assayed for viability using CellTiter-Glo reagent (Promega) following the manufacturer's instructions. Plates were read using Tecan luminescence plate reader. Results were normalized to the viability of cells without compounds (control wells). The IC50 values were calculated using nonlinear regression algorithms in XCell software.

[2] = target: BCL-2 (Homo sapiens, UniProt P10415); test: Isothermal titration calorimetry (ITC), BCL-2; conditions: binding to BCL-2
Chain of BCL-2 (P10415 whole entry): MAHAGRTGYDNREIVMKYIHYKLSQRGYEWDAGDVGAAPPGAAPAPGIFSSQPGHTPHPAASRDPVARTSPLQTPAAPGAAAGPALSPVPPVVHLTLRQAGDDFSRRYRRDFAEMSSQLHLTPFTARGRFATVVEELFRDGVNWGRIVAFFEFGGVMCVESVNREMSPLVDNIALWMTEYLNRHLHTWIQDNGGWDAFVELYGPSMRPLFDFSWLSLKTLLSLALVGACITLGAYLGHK
Protocol: The protein was dialyzed prior to use in 2 L of 25 mM HEPES, 150 mM NaCl, 5% glycerol (v/v), 0.5% MTG (v/v) at pH 7.4 for 3 hours at room temperature. The protein was dialyzed using a 3.5 K MWCO Slide-A-Lyzer™ cassette. The protein solution was recovered, spin-filtered through a […] frit. The filtered protein was quantified by UV absorbance at 280 nm using an extinction coefficient of 36440 M^-1cm^-1. 500 ml of dialysis buffer was retained (remainder used to rinse out SCHOT bottle) and degassed for a minimum of 30 mins under vacuum with constant stirring. […] The solutions were carefully matched to ensure same solvent and buffer conditions were present in both syringe and cell (this is to minimize heat of dilution effects). The final solution was the dialysis buffer plus 1% DMSO and 0.05% P20. The experiment was performed over 13 injections with stirring at 1000 rpm, gain setting low and at 25° C. Pure water was used in the reference cell. The first injection was 0.5 μl with a duration of 1 second with a gap of 150 seconds until the further 12 injections of 3.05 μl with a duration 6.1 seconds and a 240 second interval between injections. Data was analyzed using the vendor supplied software, PEAQ-ITC Analysis Software. The data model used was the single site model. The data shown is the average of 2 or 3 independent experiments.

[3] = target: T1, BFL-1 (Homo sapiens, UniProt Q16548); test: Fluorescence polarization (FP) with Fluorescein-PUMA, BFL-1
T1 sequence (Q16548 1-175): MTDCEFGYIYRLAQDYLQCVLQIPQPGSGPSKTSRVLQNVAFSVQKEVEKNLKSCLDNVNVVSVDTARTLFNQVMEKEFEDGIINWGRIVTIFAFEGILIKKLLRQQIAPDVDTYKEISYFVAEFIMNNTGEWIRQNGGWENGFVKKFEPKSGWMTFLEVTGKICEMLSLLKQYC
Protocol: Final concentrations of MCL-1, BFL-1, BCL-2 and BCL-XL proteins were 10, 10, 10 and 20 nM respectively. The assay plates were incubated for 2 hours at room temperature and the FP was measured on a Synergy 2 reader (Ex. 528 nm, Em. 640 nm, Cut-off 510 nm). The binding of increasing doses of compound was expressed as a percentage reduction in mP compared to the window established between ‘DMSO only’ and ‘total inhibition’ control (30 μM PUMA). […] The KI was subsequently calculated as previously described [42].

[4] = system: platelets; test: Platelet counts in RS4;11-bearing mice; format: in vivo; conditions: 25 and 100 mg/kg single oral dose, 16 h post dosing
Protocol: When tumors reached approximately 200 mm^3 for efficacy studies or 300 mm^3 for pharmacodynamic studies, mice were randomized. […] Mice were treated via oral gavage at 10 ml/kg with the doses and schedules described in the figure.
For pharmacodynamic studies, blood and tumors were removed 16 h post dosing and immediately snap-frozen. Total proteins were extracted from the tumors and caspase-3 activity was assessed in triplicate using CaspACE® Assay System (Promega). Platelet cell counts were determined 16 hours post dosing using Coulter AcT diff (Beckman).

[5] = system: primary Chronic Lymphocytic Leukemia cells; test: Apoptosis (annexin V/PI flow cytometry) in primary CLL cells; format: cell-based; conditions: Homo sapiens, CLL cell, 4 h
Protocol: (§2) Peripheral blood samples from CLL patients were obtained with informed patient consent and local ethical committee approval (UHL-09723). […] Interphase fluorescence in situ hybridization (FISH) was performed for detection of 17p13 deletion. Mantle cell lymphoma (MCL) primary cells were obtained after informed consent from MCL patients treated at the department of clinical hematology from the University Hospital of Nantes, France. Peripheral MCL cells from blood or pleural effusion, were purified after Ficoll-Hypaque separation with immuno-magnetic anti-CD19 beads (Miltenyi, Paris, France). Primary cells were cultured in RPMI-1640 supplemented with 10% FCS and 2 mM glutamine. Human platelets were isolated from citrate blood donated by healthy volunteers. Washed platelets were cultured in Hepes-buffered saline (HBS, 10 mM Hepes, 150 mM NaCl, 5 mM KCl, 1 mM MgSO4, pH 7.4). […] EC50 values were calculated using GraphPadPrism (non-linear fit, sigmoidal dose response, variable slope). […] Cell death was assessed in the CD19+ primary MCL cells by annexinV-FITC staining combined with an analysis of altered cellular morphology (lower FCS). Fluorescence was analyzed on FACSCalibur.

[6] = system: BCL-XL-dependent FL5.12 cells; test: Apoptosis (annexin V/PI) in FL5.12 cells expressing BCL-XL upon IL-3 withdrawal; conditions: 24 h upon IL-3 withdrawal
[7] = target: MCL-1 (Homo sapiens, UniProt Q07820); test: Fluorescence polarization (FP) with Fluorescein-PUMA, MCL-1; format: binding
Chain of MCL-1 (Q07820 whole entry): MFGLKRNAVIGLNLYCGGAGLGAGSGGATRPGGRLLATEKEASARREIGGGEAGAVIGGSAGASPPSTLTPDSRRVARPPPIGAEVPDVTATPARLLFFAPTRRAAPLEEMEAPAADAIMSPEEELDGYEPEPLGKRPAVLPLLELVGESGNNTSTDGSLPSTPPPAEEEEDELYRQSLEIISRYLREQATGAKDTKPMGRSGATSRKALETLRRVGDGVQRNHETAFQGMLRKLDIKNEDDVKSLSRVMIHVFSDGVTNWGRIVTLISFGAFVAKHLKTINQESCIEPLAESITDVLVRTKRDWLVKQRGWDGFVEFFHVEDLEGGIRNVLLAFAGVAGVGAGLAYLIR

[8] = system: RS4;11 cell line; test: CellTiter-Glo cell viability, RS4;11; format: cell-based; conditions: Homo sapiens, 72 h of treatment
Protocol: as §1

[9] = system: Mantle Cell Lymphoma cell lines; test: CellTiter-Glo viability, MCL cell line panel; format: cell-based; conditions: 72 h; two MCL cell lines out of five tested
Protocol: as §1

[10] = system: BAX-deficient RS4;11 cells; test: Viability of RS4;11 cells transduced with shRNA BAX; format: cell-based; conditions: 72 h
[11] = system: primary Mantle Cell Lymphoma cells; test: Apoptosis (annexin V flow cytometry) in primary MCL cells; format: cell-based; conditions: Homo sapiens, 24 h
Protocol: as §2

[12] = target: BCL-XL/BAX complex (Homo sapiens, UniProt Q07817); test: Co-immunoprecipitation in BCL-XL-overexpressing HeLa cells; conditions: 2 h
Chain of BCL-XL/BAX complex (Q07817 whole entry, one chain of several): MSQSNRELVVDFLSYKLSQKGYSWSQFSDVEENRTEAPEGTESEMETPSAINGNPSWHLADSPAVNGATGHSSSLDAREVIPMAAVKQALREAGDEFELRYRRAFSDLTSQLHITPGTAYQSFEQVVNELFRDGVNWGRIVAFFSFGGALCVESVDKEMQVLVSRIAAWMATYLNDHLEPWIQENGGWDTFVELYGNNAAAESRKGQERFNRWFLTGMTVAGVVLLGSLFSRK
Protocol: Effecten reagent (Qiagen), with 3xFlag-tagged BCL-XL
24 h later, transfected Hela and RS4;11
were put under neomycin selection (800 µg/ml, Invitrogen) were then subjected to immunoprecipitation with anti-

[13] = system: control RS4;11 cells (shRNA CT); test: Viability of RS4;11 cells transduced with shRNA CT (control); format: cell-based; conditions: Homo sapiens, 72 h

## O=C(c1cc(-c2cc3c(cc2C(=O)N2Cc4ccccc4C[C@H]2CN2CCOCC2)OCO3)n2c1CCCC2)N(c1ccccc1)c1ccc(O)cc1 [S55746]
[1]
  IC50: < 1000 nM
[2]
  N (sites), stoichiometry: 1.1 sites
  ∆H (enthalpy delta): –13.5 kcal/mol
[3]; FP
  binding to BFL-1: No significant binding
[3]; at 5E-06 M
  FP_BFL-1, % of inhibition at the maximal tested concentration: 7.4%@5E-06
[4]
  platelet counts in vivo: did not induce platelet loss
[5]; 7 patients, 4 hours of treatment, read-out: EC50 apoptosis in primary CLL cells, range over patients
  EC50: 4.4 to 47.2 nM
[5]; read-out: EC50 S55746 primary CLL cells, patient CLL1, p17 del No, 4 h
  EC50: 47.2 nM
[5]; read-out: EC50 S55746 primary CLL cells, patient CLL2, p17 del No, 4 h
  EC50: 13.8 nM
[5]; read-out: EC50 S55746 primary CLL cells, patient CLL3, p17 del Yes, 4 h
  EC50: 13.7 nM
[5]; read-out: EC50 S55746 primary CLL cells, patient CLL4, p17 del No, 4 h
  EC50: 12 nM
[5]; read-out: EC50 S55746 primary CLL cells, patient CLL5, p17 del No, 4 h
  EC50: 9.9 nM
[5]; read-out: EC50 S55746 primary CLL cells, patient CLL6, p17 del Yes, 4 h
  EC50: 7.8 nM
[5]; read-out: EC50 S55746 primary CLL cells, patient CLL7, p17 del No, 4 h
  EC50: 4.4 nM
[6]
  apoptosis induction (PS+ cells) in BCL-XL-dependent FL5.12 cells: minor effect
[7]; FP
  binding to MCL-1: No significant binding
[7]; at 30E-06 M
  FP_MCL-1, % of inhibition at the maximal tested concentration: 4.3% and 4.5%
[8]
  IC50: 71.6 nM
[9]
  IC50: < 1000 nM
[10]
  reduction of sensitivity of BAX-deficient versus control RS4;11: ≈ 50 fold
[10]; Homo sapiens, RS4-11, shRNA BAX
  IC50: 2700 nM
[11]; 8 patients, 24 h of treatment, read-out: EC50 apoptosis in primary MCL cells, range over patients
  EC50: 2.5 to 110 nM
[11]; read-out: EC50 S55746 primary MCL cells, patient MCL2, 24 h
  EC50: 15 nM
[11]; read-out: EC50 S55746 primary MCL cells, patient MCL3, 24 h
  EC50: 12 nM
[11]; read-out: EC50 S55746 primary MCL cells, patient MCL4, 24 h
  EC50: 12 nM
[11]; read-out: EC50 S55746 primary MCL cells, patient MCL5, 24 h
  EC50: 5 nM
[11]; read-out: EC50 S55746 primary MCL cells, patient MCL6, 24 h
  EC50: 4 nM
[11]; read-out: EC50 S55746 primary MCL cells, patient MCL7, 24 h
  EC50: 3 nM
[11]; read-out: EC50 S55746 primary MCL cells, patient MCL8, 24 h
  EC50: 2.5 nM
[12]
  effect on BCL-XL/BAX complex in BCL-XL-overexpressing HeLa cells: without any significant effect on the BCL-XL/BAX complex
[13]
  IC50: 57 nM

Source: publication PMC5929447 (Oncotarget, 2018)
